Measured values reported in ChEMBL document CHEMBL6087478, “Chain Length Does Matter: Development of High-Potency QS-21-Based Vaccine Adjuvants” (J Med Chem, 2025).
The source made the active and inactive calls. No cut-off for these calls is given here.

Assays:
[1] = test system: Mus musculus; assay: Adjuvant activity in OVA-immunized female C57BL/6 mouse assessed as increase IgG2b antibody titer at 20 ug, sc co-administered with OVA antigen on day 0,7 and 14 and measured on day 14,28,42 by ELISA method; assay type: functional, organism-based; conditions: dose 20.0 µg, time 42.0 day
[2] = test system: Mus musculus; assay: Adjuvant activity in OVA-immunized female C57BL/6 mouse assessed as increase IgG antibody titer at 20 ug, sc co-administered with OVA antigen on day 0,7 and 14 and measured on day 14,28,42 by ELISA method; assay type: functional, organism-based; conditions: dose 20.0 µg, time 42.0 day
[3] = test system: Mus musculus; assay: Adjuvant activity in OVA-immunized female C57BL/6 mouse assessed as induction of antigen-specific Th1 immune responses by measuring increase in anti-OVA specific IgG1 in serum at 50 ug, IM co-administered with OVA antigen on day 0,7 and 14 and measured on day 21 by ELISA method; assay type: functional, organism-based; conditions: dose 50.0 µg, time 21.0 day
[4] = test system: Mus musculus; assay: Adjuvant activity in OVA-immunized female C57BL/6 mouse assessed as increase in serum IgG anti-OVA antibody response at 50 ug, IM co-administered with OVA antigen on day 0,7 and 14 and measured on day 21 by ELISA method; assay type: functional, organism-based; conditions: dose 50.0 µg, time 21.0 day
[5] = Toxicity in C57BL/6 mouse assessed as effect on body weight change at 50 ug, sc in presence of OVA-antigen measured upto 7 days; assay type: organism-based; conditions: in vivo, 168 h, dose 50 µg, time < 7 day
[6] = Toxicity in C57BL/6 mouse assessed as effect on body weight change at 50 ug, IM in presence of KLH measured upto 7 days; conditions: in vivo, 168 h, dose 50 µg, time < 7 day
[7] = test system: Mus musculus; assay: Adjuvant activity in OVA-immunized female C57BL/6 mouse assessed as induction of antigen-specific Th2 immune responses by measuring increase in anti-OVA specific IgG2b in serum at 50 ug, IM co-administered with OVA antigen on day 0,7 and 14 and measured on day 21 by ELISA method; assay type: functional, organism-based; conditions: dose 50.0 µg, time 21.0 day
[8] = test system: Mus musculus; assay: Adjuvant activity in OVA-immunized female C57BL/6 mouse assessed as induction of antigen-specific Th1 immune responses by measuring increase in anti-OVA specific IgG2b in serum at 50 ug, IM co-administered with OVA antigen on day 0,7 and 14 and measured on day 21 by ELISA method; assay type: functional, organism-based; conditions: dose 50.0 µg, time 21.0 day
[9] = test system: Mus musculus; assay: Adjuvant activity in OVA-immunized female C57BL/6 mouse assessed as increase in IgG antibody titer at 50 ug, IM co-administered with OVA antigen on day 0,7 and 14 and measured on day 14,28,42 by ELISA method; assay type: functional, organism-based; conditions: dose 50.0 µg, time 42.0 day
[10] = test system: Mus musculus; assay: Adjuvant activity in KLH-immunized female C57BL/6 mouse assessed as increase in serum IgG anti-KLH antibody titer at 50 ug, IM co-administered with KLH-antigen on day 0,7 and 14 and measured on day 14,28 and 42 by ELISA method; assay type: functional, organism-based; conditions: dose 50.0 µg, time 42.0 day
[11] = Toxicity in C57BL/6 mouse assessed as effect on body weight change at 50 ug, IM in presence of OVA-antigen measured upto 7 days; conditions: in vivo, 168 h, dose 50 µg, time < 7 day
[12] = test system: Mus musculus; assay: Adjuvant activity in OVA-immunized female C57BL/6 mouse assessed as induction of antigen-specific Th2 immune responses by measuring increase in anti-OVA specific IgG1 in serum at 50 ug, IM co-administered with OVA antigen on day 0,7 and 14 and measured on day 21 by ELISA method; assay type: functional, organism-based; conditions: dose 50.0 µg, time 21.0 day
[13] = test system: Mus musculus; assay: Adjuvant activity in OVA-immunized female C57BL/6 mouse assessed as increase IgG antibody titer at 50 ug, sc co-administered with OVA antigen on day 0,7 and 14 and measured on day 14,28,42 by ELISA method; assay type: functional, organism-based; conditions: dose 50.0 µg, time 42.0 day
[14] = test system: Mus musculus; assay: Adjuvant activity in OVA-immunized female C57BL/6 mouse assessed as increase in IgG2b antibody titer at 50 ug, IM co-administered with OVA antigen on day 0,7 and 14 and measured on day 14,28,42 by ELISA method; assay type: functional, organism-based; conditions: dose 50.0 µg, time 42.0 day
[15] = test system: Mus musculus; assay: Adjuvant activity in OVA-immunized female C57BL/6 mouse assessed as increase IgG2b antibody titer at 50 ug, sc co-administered with OVA antigen on day 0,7 and 14 and measured on day 14,28,42 by ELISA method; assay type: functional, organism-based; conditions: dose 50.0 µg, time 42.0 day
[16] = test system: Mus musculus; assay: Adjuvant activity in OVA-immunized female C57BL/6 mouse assessed as increase in serum IgG1 at low dose administered as IM dose co-administered with OVA antigen on day 0,7 and 14 and measured on day 14,28 and 42 by ELISA method; assay type: functional, organism-based; conditions: time 42.0 day
[17] = test system: Mus musculus; assay: Adjuvant activity in OVA-immunized female C57BL/6 mouse assessed as increase in serum IgG anti-OVA antibody response at 5 ug, IM co-administered with OVA antigen on day 0,7 and 14 and measured on day 14,28 and 42 by ELISA method; assay type: functional, organism-based; conditions: dose 5.0 µg, time 42.0 day
[18] = test system: Mus musculus; assay: Potency index ratio of QS21 to test compound for adjuvant activity in KLH-immunized female C57BL/6 mouse assessed as increase in serum IgG anti-KLH antibody titer at 50 ug, IM co-administered with KLH-antigen on day 0,7 and 14 and measured on day 14,28 and 42 by ELISA method; assay type: functional; conditions: dose 50 µg, time 42 day
[19] = Toxicity in C57BL/6 mouse assessed as effect on body weight change at 20 ug, sc in presence of OVA-antigen measured upto 7 days; assay type: organism-based; conditions: in vivo, 168 h, dose 20 µg, time < 7 day
[20] = test system: Mus musculus; assay: Adjuvant activity in OVA-immunized female C57BL/6 mouse assessed as increase in IgG antibody titer at low dose administered as IM co-administered with OVA antigen on day 0,7 and 14 and measured on day 14,28,42 by ELISA method; assay type: functional, organism-based; conditions: time 42.0 day
[21] = test system: Mus musculus; assay: Adjuvant activity in OVA-immunized female C57BL/6 mouse assessed as increase in serum IgG2b at low dose administered as IM dose co-administered with OVA antigen on day 0,7 and 14 and measured on day 14,28 and 42 by ELISA method; assay type: functional, organism-based; conditions: time 42.0 day
[22] = test system: Mus musculus; assay: Adjuvant activity in OVA-immunized female C57BL/6 mouse assessed as increase in IgG2b antibody titer at low dose administered as IM co-administered with OVA antigen on day 0,7 and 14 and measured on day 14,28,42 by ELISA method; assay type: functional, organism-based; conditions: time 42.0 day

**Q.** Which Activity [1] does the source give for `CC1(C)CC[C@]2(C(=O)O[C@@H]3O[C@H](CO)[C@@H](O)[C@H](O[C@@H]4O[C@H](CO)[C@@H](O)[C@H](O[C@@H]5O[C@H](CO)[C@@H](O)[C@H](O[C@@H]6O[C@H](CO)[C@@H](O)[C@H](O[C@@H]7O[C@H](CO)[C@@H](O)[C@H](O)[C@H]7O)[C@H]6O)[C@H]5O)[C@H]4O)[C@H]3O)[C@H](O)C[C@]3(C)C(=CC[C@@H]4[C@@]5(C)CC[C@H](O[C@@H]6O[C@H](CO)[C@@H](O)[C@H](O[C@@H]7O[C@H](CO)[C@@H](O)[C@H](O[C@@H]8O[C@H](CO)[C@@H](O)[C@H](O)[C@H]8O)[C@H]7O)[C@H]6O)[C@@](C)(C=O)[C@@H]5CC[C@]43C)[C@@H]2C1` here?
**A.** Its Activity is “Active”.

**Q.** And the Activity [2]?
**A.** The Activity was “Active”.

**Q.** Which results are given for `C[C@@H]1O[C@@H](O[C@H]2[C@H](OC(=O)[C@]34CCC(C)(C)C[C@H]3C3=CC[C@@H]5[C@@]6(C)CC[C@H](O)[C@@](C)(C=O)[C@@H]6CC[C@@]5(C)[C@]3(C)CC4)O[C@H](CO)[C@H](NC(=O)CCCCCCCCCCCCC(=O)O)[C@@H]2O)[C@H](O)[C@H](O)[C@H]1O[C@@H]1OC[C@@H](O)[C@H](O)[C@H]1O`?
**A.** Activity [3]: Active; Activity [4]: Active; Activity [5]: Non-toxic; Activity [6]: Non-toxic; Activity [7]: Active; Activity [8]: Active; Activity [9]: Active; Activity [10]: Active; Activity [11]: Non-toxic; Activity [12]: Active; Activity [13]: Active; Activity [14]: Active; Activity [15]: Active

**Q.** With `C[C@@H]1O[C@@H](O[C@H]2[C@H](OC(=O)[C@]34CCC(C)(C)C[C@H]3C3=CC[C@@H]5[C@@]6(C)CC[C@H](O)[C@@](C)(C=O)[C@@H]6CC[C@@]5(C)[C@]3(C)CC4)O[C@H](CO)[C@H](NC(=O)CCCCCCCCCCC(=O)O)[C@@H]2O)[C@H](O)[C@H](O)[C@H]1O[C@@H]1OC[C@@H](O)[C@H](O)[C@H]1O` as the compound, how does the Activity [5] read?
**A.** The Activity was “Non-toxic”.

**Q.** And the Activity [13]?
**A.** Its Activity is “Active”.

**Q.** And the Activity [15]?
**A.** The Activity was “Active”.

**Q.** For `C[C@@H]1O[C@@H](O[C@H]2[C@H](OC(=O)[C@]34CCC(C)(C)C[C@H]3C3=CC[C@@H]5[C@@]6(C)CC[C@H](O)[C@@](C)(C=O)[C@@H]6CC[C@@]5(C)[C@]3(C)CC4)O[C@H](CO)[C@H](NC(=O)CCCCCCCCCCCCCCC(=O)O)[C@@H]2O)[C@H](O)[C@H](O)[C@H]1O[C@@H]1OC[C@@H](O)[C@H](O)[C@H]1O`, which Activity [16] is on record?
**A.** Its Activity is “Active”.

**Q.** What about the Activity [3] of the same compound?
**A.** The Activity was “Active”.

**Q.** What about the Activity [4] of the same compound?
**A.** Its Activity is “Active”.

**Q.** What about the Activity [17] of the same compound?
**A.** Its Activity is “Active”.

**Q.** And the “fold change (FC)” value [18]?
**A.** Its value is 10.

**Q.** What about the Activity [19] of the same compound?
**A.** The Activity was “Non-toxic”.

**Q.** And the Activity [6]?
**A.** The Activity was “Non-toxic”.

**Q.** And the Activity [7]?
**A.** The Activity was “Active”.

**Q.** And the Activity [8]?
**A.** The Activity was “Active”.

**Q.** What about the Activity [20] of the same compound?
**A.** The Activity was “Active”.

**Q.** And the Activity [1]?
**A.** The Activity was “Active”.

**Q.** What about the Activity [21] of the same compound?
**A.** The Activity was “Active”.

**Q.** And the Activity [2]?
**A.** The Activity was “Active”.

**Q.** And the Activity [22]?
**A.** Its Activity is “Active”.

**Q.** And the Activity [11]?
**A.** Its Activity is “Non-toxic”.

**Q.** What about the Activity [12] of the same compound?
**A.** Its Activity is “Active”.
